Each compound was assayed against T1, recombinant His-tag Y220C p53 DBD protein (Homo sapiens, UniProt P04637, Y220C) (assay: In vitro DNA binding activity assay (TR-FRET): binding of His-tag Y220C p53 DBD to biotin-labeled consensus DNA). Conditions: SC150 = concentration to increase DNA binding by […], His-tag Y220C p53 DBD, biotin-labeled consensus DNA.
T1 construct: recombinant His-tag Y220C p53 DBD protein (amino acids #˜94-312)
Assay type: biochemical

Row | Structure (SMILES) | Y220C SC150 (μM)
1 | COCC1(n2ccc(C(=O)NCc3nc(-c4cc5c(N[C@H]6CCNC[C@H]6F)cccc5n4CC(F)(F)F)no3)c2)CC1 [Compound 476B, N-{[3-(4-{[(3R,4S)-3-fluoropiperidin-4-yl]amino}-1-(2,2,2-trifluoroethyl)-1H-indol-2-yl)-1,2,4-oxadiazol-5-yl]methyl}-1-[1-(methoxymethyl)cyclopropyl]-1H-pyrrole-3-carboxamide] | * (* = 0 μM ≤ SC150 < 0.1 μM)
2 | CC1(n2ccc(C(=O)NCc3nc(-c4cc5c(N[C@@H]6CCNC[C@@H]6F)cccc5n4CC(F)(F)F)no3)c2)CCOCC1 [Compound 477B, N-{[3-(4-{[(3S,4R)-3-fluoropiperidin-4-yl]amino}-1-(2,2,2-trifluoroethyl)-1H-indol-2-yl)-1,2,4-oxadiazol-5-yl]methyl}-1-(4-methyloxan-4-yl)-1H-pyrrole-3-carboxamide] | * (* = 0 μM ≤ SC150 < 0.1 μM)
3 | CCOCC1(n2ccc(C(=O)NCc3nc(-c4cc5c(N[C@@H]6CCN(C)C[C@@H]6F)cccc5n4CC(F)(F)F)no3)c2)CC1 [Compound 481B, 1-[1-(ethoxymethyl)cyclopropyl]-N-{[3-(4-{[(3S,4R)-3-fluoro-1-methylpiperidin-4-yl]amino}-1-(2,2,2-trifluoroethyl)-1H-indol-2-yl)-1,2,4-oxadiazol-5-yl]methyl}-1H-pyrrole-3-carboxamide] | * (* = 0 μM ≤ SC150 < 0.1 μM)
4 | COCC1(c2ccc(C(=O)NCc3nc(-c4cc5c(N[C@@H]6CCN(C)C[C@@H]6F)cccc5n4CC(F)(F)F)no3)s2)CC1 [Compound 483B, N-{[3-(4-{[(3S,4R)-3-fluoro-1-methylpiperidin-4-yl]amino}-1-(2,2,2-trifluoroethyl)-1H-indol-2-yl)-1,2,4-oxadiazol-5-yl]methyl}-5-[1-(methoxymethyl)cyclopropyl]thiophene-2-carboxamide] | * (* = 0 μM ≤ SC150 < 0.1 μM)
5 | CN1CC[C@@H](Nc2cccc3c2cc(-c2noc(CNC(=O)c4c[nH]c(C(C)(C)C)c4)n2)n3CC(F)(F)F)[C@@H](F)C1 [Compound 484B, 5-tert-butyl-N-{[3-(4-{1[(3S,4R)-3-fluoro-1-methylpiperidin-4-yl]amino}-1-(2,2,2-trifluoroethyl)-1H-indol-2-yl)-1,2,4-oxadiazol-5-yl]methyl}-1H-pyrrole-3-carboxamide] | * (* = 0 μM ≤ SC150 < 0.1 μM)
6 | CN1CC[C@@H](Nc2cccc3c2cc(-c2noc(CNC(=O)c4ccc(C5(CO)CC5)s4)n2)n3CC(F)(F)F)[C@@H](F)C1 [Compound 486B, N-{[3-(4-{[(3S,4R)-3-fluoro-1-methylpiperidin-4-yl]amino}-1-(2,2,2-trifluoroethyl)-1H-indol-2-yl)-1,2,4-oxadiazol-5-yl]methyl}-5-[1-(hydroxymethyl)cyclopropyl]thiophene-2-carboxamide] | * (* = 0 μM ≤ SC150 < 0.1 μM)
7 | CN1CC[C@@H](Nc2cccc3c2cc(-c2noc(CNC(=O)c4csc(C5(CO)CC5)c4)n2)n3CC(F)(F)F)[C@@H](F)C1 [Compound 487B, N-{[3-(4-{[(3S,4R)-3-fluoro-1-methylpiperidin-4-yl]amino}-1-(2,2,2-trifluoroethyl)-1H-indol-2-yl)-1,2,4-oxadiazol-5-yl]methyl}-5-[1-(hydroxymethyl)cyclopropyl]thiophene-3-carboxamide] | * (* = 0 μM ≤ SC150 < 0.1 μM)
8 | COC(C)(C)c1cc(C(=O)NCc2nc(-c3cc4c(N[C@H]5CCNC[C@H]5F)cccc4n3CC(F)(F)F)no2)cs1 [Compound 490B, N-{[3-(4-{[(3R,4S)-3-fluoropiperidin-4-yl]amino}-1-(2,2,2-trifluoroethyl)-1H-indol-2-yl)-1,2,4-oxadiazol-5-yl]methyl}-5-(2-methoxypropan-2-yl)thiophene-3-carboxamide] | * (* = 0 μM ≤ SC150 < 0.1 μM)
9 | CC(C)(C)n1ccc(C(=O)NCc2nc(-c3cc4c(N[C@H]5CCOC[C@H]5F)cccc4n3CC(F)(F)F)no2)c1 [Compound 492B, 1-tert-butyl-N-{[3-(4-{[(3S,4S)-3-fluorooxan-4-yl]amino}-1-(2,2,2-trifluoroethyl)-1H-indol-2-yl)-1,2,4-oxadiazol-5-yl]methyl}-1H-pyrrole-3-carboxamide] | * (* = 0 μM ≤ SC150 < 0.1 μM)
10 | COCC1(n2ccc(C(=O)NCc3nc(-c4cc5c(N[C@H]6CCOC[C@H]6F)cccc5n4CC(F)(F)F)no3)c2)CC1 [Compound 496B, N-{[3-(4-{[(3S,4S)-3-fluorooxan-4-yl]amino}-1-(2,2,2-trifluoroethyl)-1H-indol-2-yl)-1,2,4-oxadiazol-5-yl]methyl}-1-[1-(methoxymethyl)cyclopropyl]-1H-pyrrole-3-carboxamide] | * (* = 0 μM ≤ SC150 < 0.1 μM)
11 | CC(C)(C)n1cc(C(=O)NCc2nc(-c3cc4c(N[C@H]5CCOC[C@H]5F)cccc4n3CC(F)(F)F)no2)cn1 [Compound 498B, 1-tert-butyl-N-{[3-(4-{[(3S,4S)-3-fluorooxan-4-yl]amino}-1-(2,2,2-trifluoroethyl)-1H-indol-2-yl)-1,2,4-oxadiazol-5-yl]methyl}-1H-pyrazole-4-carboxamide] | * (* = 0 μM ≤ SC150 < 0.1 μM)
12 | CN1CC[C@@H](Nc2cccc3c2cc(-c2noc(CNC(=O)c4ccc(C(C)(C)C)nc4)n2)n3CC(F)(F)F)[C@@H](F)C1 [Compound 501B, 6-tert-butyl-N-{[3-(4-{[(3S,4R)-3-fluoro-1-methylpiperidin-4-yl]amino}-1-(2,2,2-trifluoroethyl)-1H-indol-2-yl)-1,2,4-oxadiazol-5-yl]methyl}pyridine-3-carboxamide] | * (* = 0 μM ≤ SC150 < 0.1 μM)

Now from value to compound:

Row | Y220C SC150 (μM) | Structure (SMILES)
13 | * (* = 0 μM ≤ SC150 < 0.1 μM) | CC1(n2ccc(C(=O)NCc3nc(-c4cc5c(N[C@H]6CCNC[C@H]6F)cccc5n4CC(F)(F)F)no3)c2)CCOCC1 [Compound 478B, N-{[3-(4-{[(3R,4S)-3-fluoropiperidin-4-yl]amino}-1-(2,2,2-trifluoroethyl)-1H-indol-2-yl)-1,2,4-oxadiazol-5-yl]methyl}-1-(4-methyloxan-4-yl)-1H-pyrrole-3-carboxamide]
14 | * (* = 0 μM ≤ SC150 < 0.1 μM) | COC(C)(C)c1ccc(C(=O)NCc2nc(-c3cc4c(N[C@H]5CCNC[C@H]5F)cccc4n3CC(F)(F)F)no2)s1 [Compound 479B, N-{[3-(4-{[(3R,4S)-3-fluoropiperidin-4-yl]amino}-1-(2,2,2-trifluoroethyl)-1H-indol-2-yl)-1,2,4-oxadiazol-5-yl]methyl}-5-(2-methoxypropan-2-yl)thiophene-2-carboxamide]
15 | * (* = 0 μM ≤ SC150 < 0.1 μM) | COC(C)(C)c1ccc(C(=O)NCc2nc(-c3cc4c(N[C@@H]5CCNC[C@@H]5F)cccc4n3CC(F)(F)F)no2)s1 [Compound 480B]
16 | * (* = 0 μM ≤ SC150 < 0.1 μM) | CN(C)CC1(n2ccc(C(=O)NCc3nc(-c4cc5c(N[C@@H]6CCN(C)C[C@@H]6F)cccc5n4CC(F)(F)F)no3)c2)CC1 [Compound 482B, 1-{1-[(dimethylamino)methyl]cyclopropyl}-N-{[3-(4-{[(3S,4R)-3-fluoro-1-methylpiperidin-4-yl]amino}-1-(2,2,2-trifluoroethyl)-1H-indol-2-yl)-1,2,4-oxadiazol-5-yl]methyl}-1H-pyrrole-3-carboxamide]
17 | * (* = 0 μM ≤ SC150 < 0.1 μM) | COCC(C)(C)c1cc(C(=O)NCc2nc(-c3cc4c(N[C@@H]5CCN(C)C[C@@H]5F)cccc4n3CC(F)(F)F)no2)cs1 [Compound 485B, N-{[3-(4-{1[(3S,4R)-3-fluoro-1-methylpiperidin-4-yl]amino}-1-(2,2,2-trifluoroethyl)-1H-indol-2-yl)-1,2,4-oxadiazol-5-yl]methyl}-5-(1-methoxy-2-methylpropan-2-yl)thiophene-3-carboxamide]
18 | * (* = 0 μM ≤ SC150 < 0.1 μM) | COCC1(c2cc(C(=O)NCc3nc(-c4cc5c(N[C@@H]6CCN(C)C[C@@H]6F)cccc5n4CC(F)(F)F)no3)cs2)CC1 [Compound 488B, N-{[3-(4-{[(3S,4R)-3-fluoro-1-methylpiperidin-4-yl]amino}-1-(2,2,2-trifluoroethyl)-1H-indol-2-yl)-1,2,4-oxadiazol-5-yl]methyl}-5-[1-(methoxymethyl)cyclopropyl]thiophene-3-carboxamide]
19 | * (* = 0 μM ≤ SC150 < 0.1 μM) | COC(C)(C)c1cc(C(=O)NCc2nc(-c3cc4c(N[C@@H]5CCNC[C@@H]5F)cccc4n3CC(F)(F)F)no2)cs1 [Compound 489B, N-{[3-(4-{[(3S,4R)-3-fluoropiperidin-4-yl]amino}-1-(2,2,2-trifluoroethyl)-1H-indol-2-yl)-1,2,4-oxadiazol-5-yl]methyl}-5-(2-methoxypropan-2-yl)thiophene-3-carboxamide]
20 | * (* = 0 μM ≤ SC150 < 0.1 μM) | CC(C)(C)n1ccc(C(=O)NCc2nc(-c3cc4c(N[C@@H]5CCOC[C@@H]5F)cccc4n3CC(F)(F)F)no2)c1 [Compound 493B, 1-tert-butyl-N-{[3-(4-{[(3R,4R)-3-fluorooxan-4-yl]amino}-1-(2,2,2-trifluoroethyl)-1H-indol-2-yl)-1,2,4-oxadiazol-5-yl]methyl}-1H-pyrrole-3-carboxamide]
21 | * (* = 0 μM ≤ SC150 < 0.1 μM) | COCC1(n2ccc(C(=O)NCc3nc(-c4cc5c(N[C@@H]6CCOC[C@@H]6F)cccc5n4CC(F)(F)F)no3)c2)CC1 [Compound 495B, N-{[3-(4-{[(3R,4R)-3-fluorooxan-4-yl]amino}-1-(2,2,2-trifluoroethyl)-1H-indol-2-yl)-1,2,4-oxadiazol-5-yl]methyl}-1-[1-(methoxymethyl)cyclopropyl]-1H-pyrrole-3-carboxamide]
22 | * (* = 0 μM ≤ SC150 < 0.1 μM) | CC(C)(C)n1cc(C(=O)NCc2nc(-c3cc4c(N[C@@H]5CCOC[C@@H]5F)cccc4n3CC(F)(F)F)no2)cn1 [Compound 497B, 1-tert-butyl-N-{[3-(4-{[(3R,4R)-3-fluorooxan-4-yl]amino}-1-(2,2,2-trifluoroethyl)-1H-indol-2-yl)-1,2,4-oxadiazol-5-yl]methyl}-1H-pyrazole-4-carboxamide]
